# Measured values published in US20250320506A1, “ULTR[…] M[…]-FREE […] CASCADED AMP[…] POSITIVE FEEDBACK” (Northwestern University, priority 2019, published 2025).
# Experiments:
# [1] = tested on: cell-free protein synthesis; assay: titration of analyte against an unregulated reporter plasmid (pT7-sfGFP) in a cell-free gene expression reaction; type: biochemical, E. coli; settings: 100 μM CuSO4; transcription and translation in vitro
# Description: FIG. 4A-D. FIG. 4 illustrates various aspects of the biosensors of the present disclosure. (A) The “enriched” extract that contains the allosteric transcription factor can be mixed against a “blank” unenriched extract to modulate the concentration of the transcription factor in the reaction. (B) For tighter control and specificity of a cascaded system, if T7 RNA polymerase is used to drive expression of the allosteric transcription factor in the host strain of extract, an engineered variant of T7 RNAP may be used as the output of the regulated promoter. Exemplary T7 RNAP mutants are illustrated. […] The E. coli RNAP is used to express four T7 RNAP variants from a mock sensor plasmid (5 nM) that contains the consensus E. coli promoter J23119. The corresponding reporter plasmid is added at 5 nM. The kinetics of T7 RNAP synthesis lead to a time delay of about 20-30 minutes relative to a reaction that uses purified WT T7 RNAP. […] Reporter yields are from triplicates of four-hour sfGFP yields on a plate reader at 30° C. […]
# A series of tuning experiments are next used to optimize the sensor. […] This experiment is an isothermal cell-free gene expression reaction held at 30° C. in a plate reader for ˜4 hours using an established set of physiochemical conditions to maximize protein production in general. […]
# lead sensor = assay: crosstalk between four metal-sensing aTFs using cell-free response; type: biochemical; settings: heatmap
# Description: FIG. 21. Design of mitigating cross-talk of sensors. Experimental measurement of crosstalk between four metal-sensing aTFs using cell-free response. Heatmap is colored more brightly to indicate stronger fluorescent signal.
Structure (SMILES),effect on cell-free protein synthesis [1],crosstalk (fluorescent signal) of metal-sensing aTF sensor with non-cognate metal (lead sensor)
O=S(=O)([O-])[O-].[Cu+2] [CuSO4],shuts down cell-free protein synthesis,
[Cd] [cadmium],,crosstalk for the lead sensor with cadmium
